The values that follow come from patent US9862674B2, “Therapeutic compounds and methods of use” (University of Florida Research Foundation, Inc., priority 2007, dated 2018).

Assay [1] deals with T1, 5HT2A receptor (Homo sapiens, UniProt P28223). Briefly: PLC/[3H]-IP formation in CHO cells transiently transfected with human 5HT2A cDNA (agonist and antagonist mode). In kind it is cell-based. Also on record: host or cells: CHO-K1 (ATCC CCL-61), transient transfection.
Assay [2] addresses T2, 5HT2C receptors (Homo sapiens, UniProt P28335).
T2 sequence (P28335 33-458): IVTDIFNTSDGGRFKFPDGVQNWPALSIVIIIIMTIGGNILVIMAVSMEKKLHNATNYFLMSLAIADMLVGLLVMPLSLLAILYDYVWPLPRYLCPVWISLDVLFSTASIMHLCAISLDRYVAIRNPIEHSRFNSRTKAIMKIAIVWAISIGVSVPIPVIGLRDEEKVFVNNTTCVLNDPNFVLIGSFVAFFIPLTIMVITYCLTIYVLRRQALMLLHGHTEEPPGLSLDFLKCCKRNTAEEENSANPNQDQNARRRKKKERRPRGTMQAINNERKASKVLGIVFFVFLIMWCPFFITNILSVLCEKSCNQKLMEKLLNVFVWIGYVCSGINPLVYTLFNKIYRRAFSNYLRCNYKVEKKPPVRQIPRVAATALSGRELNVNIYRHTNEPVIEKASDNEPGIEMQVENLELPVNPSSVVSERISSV
Kind of assay: PDSP (2005) functional activity of APTs at 5HT2C receptors. The class given is cell-based. The settings on record: preliminary data.

In assay [3] the target is T1, 5HT2A receptor. Briefly: PDSP (2005) 5HT2A receptor-mediated PLC/[3H]-IP formation. The class given is cell-based. The settings on record: concentrations to 10 μM; not shown.
The target of assay [4] is T2, 5HT2C receptors. Kind of assay: Radioreceptor saturation and competition binding, [3H]-mesulergine labeled 5-HT2C receptor membranes from transfected CHO-K1 cells.
For assay [5], the system named is cocaine self-administration. The note with it: rat; cited from earlier work.
Assay [6] addresses T1, 5HT2A receptor. Briefly: Radioreceptor saturation and competition binding, [3H]-ketanserin labeled 5-HT2A receptor membranes from transfected CHO-K1 cells. Also on record: host or cells: CHO-K1 (ATCC CCL-61), transient transfection. The settings on record: saturation binding.
Assay [7] relates to 5HT2C receptors over 5HT2A receptors. The note with it: in vitro; cited from earlier work.

T1 sequence (P28223 whole entry): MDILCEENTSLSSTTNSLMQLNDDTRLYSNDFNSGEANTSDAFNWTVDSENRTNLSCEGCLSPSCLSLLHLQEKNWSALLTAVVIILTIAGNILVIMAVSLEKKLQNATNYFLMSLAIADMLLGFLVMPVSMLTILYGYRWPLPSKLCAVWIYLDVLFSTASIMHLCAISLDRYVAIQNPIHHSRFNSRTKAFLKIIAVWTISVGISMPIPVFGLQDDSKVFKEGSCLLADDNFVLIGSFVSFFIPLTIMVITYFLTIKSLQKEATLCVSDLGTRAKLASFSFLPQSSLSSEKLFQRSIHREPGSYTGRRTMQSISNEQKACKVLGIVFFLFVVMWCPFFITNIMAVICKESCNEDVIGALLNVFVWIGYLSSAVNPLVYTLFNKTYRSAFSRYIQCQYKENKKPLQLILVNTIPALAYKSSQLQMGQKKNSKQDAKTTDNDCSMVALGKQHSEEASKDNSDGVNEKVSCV

For the molecule `NCCc1c[nH]c2ccc(O)cc12` [5-HT, 5-hydroxytryptamine], the “5HT2A PLC/[3H]-IP formation stimulated by agonist” value at 5HT2A receptor [1] (5-HT 1.0 μM) is listed as roughly 250 % basal control. Further, the “maximal PLC/[3H]-IP formation, 5HT2A” value on 5HT2A receptor [1] (at Emax concentration) is on record as roughly 300 % basal control activity.

In the case of `CN(C)C1CCc2c(cccc2-c2ccccc2)C1` (stereo not shown) [32 (5APT)], on 5HT2C receptors [2], the EC50 was roughly 0.08 µM, the “Emax at 5HT2C (PDSP)” value is given as roughly 75 % 5HT value and the “functional character at 5HT2C (PDSP)” value was “moderate potency partial agonist”. On 5HT2A receptor [3], the “activation of 5HT2A receptor-mediated PLC/[3H]-IP formation (PDSP)” value was “did not activate”. Moreover, at 5HT2C receptors [4], the affinity corresponds to a Ki of 0.32 ± 0.011 µM.

On 5HT2C receptors [4], `CN(C)C1CCc2c(cccc2-c2cccc(C(F)(F)F)c2)C1` (stereo not shown) [33 (CF3^−5APT)] showed an inhibitory constant (Ki) of roughly 0.19 µM.

Consider `CN(C)C1CCc2c(cccc2-c2cccc(Cl)c2)C1` (stereo not shown) [35 (Cl-5APT)], for which, at 5HT2C receptors [4], the inhibition constant (Ki) is roughly 0.22 µM.

The molecule `CN(C)C1CCc2cc(-c3ccccc3)ccc2C1` (stereo not shown) [36 (6APT)] showed a Ki on 5HT2C receptors [4] of 1.8 µM.

At 5HT2C receptors [4], `CN(C)C1CCc2cc(-c3cccc(C(F)(F)F)c3)ccc2C1` (stereo not shown) [37 (CF3^−6APT)] came in with an inhibition constant Ki of roughly 1.5 µM.

At 5HT2C receptors [4], `CN(C)C1CCc2cc(-c3cccc(Br)c3)ccc2C1` (stereo not shown) [40 (Br-6APT)] yielded a Ki of 0.54 ± 0.01 µM.

For `COc1cccc([C@H](O)C2CCN(CCc3ccc(F)cc3)CC2)c1OC` [M100907], the “effect on rate of cocaine self-administration” value in assay [5] was “does not alter responding rate”.

In the case of `Cc1cc2c(cc1Cl)N(C(=O)Nc1ccc(Oc3cccnc3C)nc1)CC2` [SB242084], in assay [5], the “effect on rate of cocaine self-administration” value is “increases the rate of cocaine self-administration dose-dependently”.

Take `[3H]C([3H])(N1CCC(C(=O)c2ccc(F)cc2)CC1)C([3H])([3H])n1c(=O)[nH]c2ccccc2c1=O` [[^3H]-Ketanserin]: the “Bmax of 5HT2A receptors labeled” value at 5HT2A receptor [6] worked out at 1.73±0.11 pmol/mg protein.

Regarding `C[C@H]1CNCCc2ccc(Cl)cc21` [lorcaserin], the “selectivity for activation of 5HT2C receptors over 5HT2A receptors” value in assay [7] is 15 fold.
